Data on one compound can be found in patent US6613322B2, “Method for treating a subject suffering from conditions associated with an extracellular zinc sphingomyelinase” (The Trustees of Columbia University in the City of New York, priority 1997, dated 2003).

In the assay the test system is L-SMase. The experiment in a line: SMase assay of CHO cell homogenate and 16,000-x-g pellet. The format is biochemical, Chinese hamster. The protocol: FIGS. 18A-B. Zn^2+-dependency of SMase in a sonicated cell homogenate and 16,000-x-g pellet. CHO cells were grown to 90% confluency in Ham's F-12 media containing 10% HI-FBS and PSG and then washed 3 times with PBS before incubation in serum-free medium containing 0.2% BSA for 24 h. The cells were then washed 3 times in 0.25 M sucrose and the total cell homogenate and the 16,000-x-g cellular subfraction were isolated as described in “Experimental Procedures”. Twelve micrograms of the cell homogenate (Homogenate) and 2.5 μg of the 16,000-x-g pellet (16K-xg Pellet) were assayed for SMase activity in the presence of either 5 mM EDTA (hatched bars) or 0.1 mM ZnCl2 (solid bars) for 1 h at 37° C. at pH 5.0. […]
SMase Assay—As previously described (Schissel et al., 1996), the standard 200-μl assay mixture consisted of up to 40 μl of sample (conditioned media or homogenized cells; see above) and a volume of assay buffer (0.1 M sodium acetate, pH 5.0) to bring the volume to 160 μl. […] The ceramide spots were scraped and directly counted to quantify [^3H]ceramide. Typically, the assay reactions contained approximately 20 μg of cellular homogenate protein and a volume of conditioned media derived from a quantity of cells equivalent to approximately 50 μg of cellular protein.

Consider `[Cl-].[Cl-].[Zn+2]` [Zn^2+, ZnCl2], for which the “effect of exogenous Zn2+ on SMase activity” value reads like this: (16,000-x-g pellet (intact lysosomes), sonicated) “substantially stimulated”; (sonicated cell homogenate) “no effect”.
